The values that follow come from ChEMBL document CHEMBL4616632, “Discovery of Cyclic Boronic Acid QPX7728, an Ultrabroad-Spectrum Inhibitor of Serine and Metallo-β-lactamases” (J Med Chem, 2020).

For assay [1], the system named is Klebsiella pneumoniae. Put plainly: Inhibition of Klebsiella pneumoniae KP1054 VIM-1 assessed as minimum concentration of compound required to reduce the MIC of biapenem to 1 ug/ml.
For assay [2], the system named is Escherichia coli. Put plainly: Inhibition of Escherichia coli KP308 SHV-5 assessed as minimum concentration of compound required to reduce the MIC of aztreonam to 4 ug/ml.
The subject of assay [3] is Escherichia coli. Put plainly: Inhibition of Escherichia coli EC302 TEM-10 assessed as minimum concentration of compound needed to reduce the MIC of aztreonam to 4 ug/ml.
Assay [4] deals with Escherichia coli. Put plainly: Inhibition of Escherichia coli ECM6619 TEM-10 assessed as minimum concentration of compound needed to reduce the MIC of aztreonam to 4 ug/ml.
In assay [5] the test system is Acinetobacter baumannii. Kind of assay: Inhibition of Acinetobacter baumannii AB1053 OXA-72 assessed as minimum concentration of compound needed to reduce the MIC of meropenem to 8 ug/ml.
Assay [6] addresses Beta-lactamase OXA-23 (Acinetobacter baumannii) (UniProt Q9L4P2). Kind of assay: Inhibition of Acinetobacter baumannii AB1054 OXA-23 assessed as minimum concentration of compound needed to reduce the MIC of meropenem to 8 ug/ml.
Assay [7] concerns the target Beta-lactamase (Klebsiella pneumoniae) (UniProt Q93LQ9). Kind of assay: Inhibition of Klebsiella pneumoniae KP1004 KPC-2 assessed as minimum concentration of compound needed to reduce the MIC of aztreonam to 4 ug/ml.
Assay [8] concerns Klebsiella pneumoniae. Put plainly: Inhibition of Klebsiella pneumoniae KP1009 CTX-M-15 assessed as minimum concentration of compound required to reduce the MIC of aztreonam to 4 ug/ml.
Assay [9] concerns Pseudomonas aeruginosa. Kind of assay: Inhibition of Pseudomonas aeruginosa PAM 2035 AmpC assessed as minimum concentration of compound needed to reduce the MIC of aztreonam to 4 ug/ml.
In assay [10] the test system is Escherichia coli. Kind of assay: Inhibition of Escherichia coli ECM6625 SHV-5 assessed as minimum concentration of compound needed to reduce the MIC of aztreonam to 4 ug/ml.
In assay [11] the test system is Klebsiella pneumoniae. Put plainly: Inhibition of Klebsiella pneumoniae KP1160 IMP-26 assessed as minimum concentration of compound needed to reduce the MIC of meropenem to 1 ug/ml.
Assay [12] has as its system Enterobacter cloacae. Kind of assay: Inhibition of Enterobacter cloacae ECL1002 AmpC assessed as minimum concentration of compound needed to reduce the MIC of aztreonam to 4 ug/ml.
In assay [13] the test system is Klebsiella pneumoniae. Kind of assay: Inhibition of Klebsiella pneumoniae KP1081 NDM-1 assessed as minimum concentration of compound required to reduce the MIC of biapenem to 1 ug/ml.

Beta-lactamase OXA-23 (Acinetobacter baumannii), sequence (Q9L4P2 whole entry): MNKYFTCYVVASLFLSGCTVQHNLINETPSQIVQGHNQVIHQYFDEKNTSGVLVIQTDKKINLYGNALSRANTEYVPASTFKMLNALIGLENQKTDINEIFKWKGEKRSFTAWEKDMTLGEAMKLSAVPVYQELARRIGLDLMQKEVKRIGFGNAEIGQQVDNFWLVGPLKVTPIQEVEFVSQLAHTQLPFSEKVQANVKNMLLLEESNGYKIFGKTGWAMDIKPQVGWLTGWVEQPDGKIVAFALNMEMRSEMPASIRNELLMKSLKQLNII
Beta-lactamase (Klebsiella pneumoniae), sequence (Q93LQ9 as listed by the source): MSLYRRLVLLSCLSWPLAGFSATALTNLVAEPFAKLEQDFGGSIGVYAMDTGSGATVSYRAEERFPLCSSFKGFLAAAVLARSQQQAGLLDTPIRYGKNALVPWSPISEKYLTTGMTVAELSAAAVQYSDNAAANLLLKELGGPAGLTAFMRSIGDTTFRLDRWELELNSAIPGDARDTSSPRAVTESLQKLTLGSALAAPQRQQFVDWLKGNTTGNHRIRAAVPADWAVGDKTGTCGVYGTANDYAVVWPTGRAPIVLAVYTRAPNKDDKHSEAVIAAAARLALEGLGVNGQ

Consider `COc1ccc2c(c1C(=O)O)OB(O)[C@H]1C[C@@H]21`, for which the MEC in assay [1] stood at 0.3 µg/mL; in [2], 0.3 µg/mL; in assay [3] it was 0.6 µg/mL; in [4], 0.6 µg/mL; in assay [5], 0.6 µg/mL; in assay [6] it was 1.25 µg/mL. The MEC in [7] was 0.16 µg/mL; in [8] it was 0.6 µg/mL; in [9], 2.5 µg/mL; in [10], 0.3 µg/mL; in assay [11], 20 µg/mL; in assay [12] it was 1.25 µg/mL. Besides, in assay [13], the MEC was 0.6 µg/mL.

Turning to `O=C(O)c1cccc2c1OB(O)[C@H]1C[C@@H]21`, the MEC in assay [1] came to 10 µg/mL; in assay [2], 5 µg/mL; in assay [3], 5 µg/mL; in assay [4], 5 µg/mL; in assay [5], 20 µg/mL; in assay [6], 20 µg/mL. In addition, the MEC in assay [7] is 0.16 µg/mL; in assay [8], 10 µg/mL; in assay [9], 2.5 µg/mL; in [10], 5 µg/mL; in [11], more than 20 µg/mL; in assay [12], 10 µg/mL. The MEC in [13] worked out at 1.25 µg/mL.

Regarding `COc1ccc2c(c1C(=O)O)OB(O)[C@@H](CCO)C2`, the MEC in assay [1] is 2.5 µg/mL; in assay [2] it was 20 µg/mL; in [3] it was more than 20 µg/mL; in [4] it was more than 20 µg/mL; in assay [5], 10 µg/mL; in assay [6] it was 10 µg/mL. The MEC in [7] was 5 µg/mL; in [8] it was 20 µg/mL; in assay [9], 20 µg/mL; in assay [10], 20 µg/mL; in assay [11], more than 20 µg/mL; in assay [12], 10 µg/mL. In addition, in assay [13], the MEC is 2.5 µg/mL.

As to `COc1ccc2c(c1C(=O)O)OB(O)C1CC21` (stereo not given), the MEC in assay [1] was 0.08 µg/mL; in assay [2] it was 0.3 µg/mL; in assay [3], 0.3 µg/mL; in assay [4], 0.3 µg/mL; in assay [5] it was 0.6 µg/mL; in assay [6] it was 1.25 µg/mL. Besides, the MEC was found to be 0.16 µg/mL in [7]; 0.3 µg/mL in [8]; 5 µg/mL in assay [9]; 0.3 µg/mL in assay [10]; 5 µg/mL in assay [11]; 0.3 µg/mL in assay [12]. Besides, the MEC in assay [13] amounted to 0.6 µg/mL.

Consider `O=C(O)c1c(F)ccc2c1OB(O)CC2`, for which the MEC is 5 µg/mL in assay [1]; 0.08 µg/mL in assay [4]; 2.5 µg/mL in [5]; 2.5 µg/mL in assay [6]; 0.16 µg/mL in assay [7]; 0.6 µg/mL in assay [8]. Moreover, the MEC in [9] was 0.6 µg/mL; in assay [10], 0.6 µg/mL; in assay [11], more than 20 µg/mL; in assay [12] it was 0.16 µg/mL; in [13], 0.6 µg/mL.

As for `COc1ccc2c(c1C(=O)O)OB(O)C1C2C1(F)F` (stereo not given), the MEC in assay [1] is 10 µg/mL; in assay [2] it was 1.25 µg/mL; in [3] it was 5 µg/mL; in [4], 5 µg/mL; in assay [5], 5 µg/mL; in assay [6], 10 µg/mL. Also, the MEC in assay [7] was 1.25 µg/mL; in assay [8], 1.25 µg/mL; in assay [9], 10 µg/mL; in [10], 1.25 µg/mL; in assay [11] it was more than 20 µg/mL; in assay [12], 10 µg/mL. For the same compound, the MEC in [13] worked out at 2.5 µg/mL.

Turning to `O=C(O)c1nccc2c1OB(O)CC2`, the MEC in assay [1] came out at 20 µg/mL; in [4], 0.08 µg/mL; in [5] it was 1.25 µg/mL; in assay [6] it was 2.5 µg/mL; in [7] it was 0.16 µg/mL; in assay [8], 2.5 µg/mL. Also, the MEC was 0.3 µg/mL in assay [9]; 5 µg/mL in assay [10]; more than 20 µg/mL in assay [11]; 1.25 µg/mL in assay [12]; 1.25 µg/mL in assay [13].

Consider `O=C(O)c1cccc2c1OB(O)[C@@H]1C[C@H]21`, for which the MEC in assay [1] worked out at 0.16 µg/mL; in [2] it was 0.3 µg/mL; in [3], 0.16 µg/mL; in assay [4] it was 0.16 µg/mL; in assay [5], 5 µg/mL; in assay [6], 10 µg/mL. In addition, the MEC was 0.16 µg/mL in assay [7]; 0.6 µg/mL in assay [8]; 0.6 µg/mL in assay [9]; 0.3 µg/mL in assay [10]; 20 µg/mL in [11]; 0.3 µg/mL in assay [12]. Moreover, the MEC in [13] came out at 0.6 µg/mL.

Turning to `O=C(O)c1cccc2c1OB(O)CC2`, the MEC in assay [1] was 10 µg/mL; in [4] it was 10 µg/mL; in assay [5], more than 20 µg/mL; in assay [6] it was 20 µg/mL; in assay [7], 0.6 µg/mL; in assay [8], 20 µg/mL. For the same compound, the MEC was 0.6 µg/mL in [9]; 20 µg/mL in assay [10]; more than 20 µg/mL in assay [11]; 5 µg/mL in [12]; 1.25 µg/mL in assay [13].

As for `O=C(O)c1c(F)ccc2c1OB(O)[C@@H](Sc1nncs1)C2`, the MEC stood at 1.25 µg/mL in assay [1]; 0.3 µg/mL in assay [2]; 5 µg/mL in assay [3]; 2.5 µg/mL in assay [7]; 10 µg/mL in [8]; 20 µg/mL in [9]. The values for the MEC in assay [11], in assay [12] and in assay [13] were 20 µg/mL, 5 µg/mL and 0.6 µg/mL, respectively.

As to `Nc1nnc(S[C@H]2Cc3ccc(OCC(F)F)c(C(=O)O)c3OB2O)s1`, the MEC in assay [1] was 0.3 µg/mL; in [2] it was more than 20 µg/mL; in assay [3] it was more than 20 µg/mL; in assay [7], 10 µg/mL; in assay [8], more than 20 µg/mL; in assay [9] it was 20 µg/mL. In addition, the values for the MEC in assay [11], in assay [12] and in assay [13] were 1.25 µg/mL, more than 20 µg/mL and 1.25 µg/mL, respectively.

Regarding `O=C(O)c1c(OCCF)ccc2c1OB(O)[C@@H](Sc1nncs1)C2`, the MEC is 0.16 µg/mL in [1]; 5 µg/mL in assay [2]; 20 µg/mL in assay [3]; 5 µg/mL in assay [7]; 20 µg/mL in assay [8]; 20 µg/mL in assay [9]. The MEC in [11] was 2.5 µg/mL; in [12], more than 20 µg/mL; in assay [13] it was 0.6 µg/mL.

Consider `O=C(O)c1c(OCc2nncs2)ccc2c1OB(O)[C@@H](Sc1nncs1)C2`, for which the MEC was 0.3 µg/mL in [1]; 5 µg/mL in [2]; 5 µg/mL in assay [3]; 20 µg/mL in assay [7]; 20 µg/mL in [8]; more than 20 µg/mL in assay [9]. The MEC in assay [11] is 2.5 µg/mL; in assay [12] it was more than 20 µg/mL; in [13] it was 2.5 µg/mL.

In the case of `COCCOc1ccc2c(c1C(=O)O)OB(O)[C@@H](Sc1nncs1)C2`, the MEC in assay [1] is 0.16 µg/mL; in [2], 10 µg/mL; in assay [3], more than 20 µg/mL; in [7], 20 µg/mL; in assay [8], 20 µg/mL; in assay [9], more than 20 µg/mL. The MEC in assay [11] was 1.25 µg/mL; in [12], more than 20 µg/mL; in assay [13], 0.6 µg/mL.

Turning to `O=C(O)c1c(OC(F)F)ccc2c1OB(O)[C@@H](Sc1nncs1)C2`, the MEC in assay [1] amounted to 1.25 µg/mL; in [2], 2.5 µg/mL; in assay [3], 20 µg/mL; in [7], 5 µg/mL; in [8], 20 µg/mL; in assay [9] it was 20 µg/mL. Besides, the MEC in assay [11] was 20 µg/mL; in assay [12], more than 20 µg/mL; in assay [13], 1.25 µg/mL.
